This is an account of results in PubChem BioAssay AID210 (DTP/NCI, 2004).

The test system of this assay is CD2F1 mice, ip Colon 26 adenocarcinoma, median survival T/C. Put plainly: NCI In Vivo Anticancer Drug Screen. Data for tumor model Colon 26 Adenocarcinoma (intraperitoneal) in CD2F1 (CDF1) mice. The conditions noted are these: endpoint: median survival time, higher = longer survival. As to the method: The antitumor activity of compounds was measured in mice bearing transplantable tumors. Survival or tumor size were measured and the results are expressed as the measurement made in the treated group (T) divided by the measurement made in the vehicle treated control group (C). The tumor model used in this assay is Colon 26 Adenocarcinoma (intraperitoneal) in CD2F1 (CDF1) mice

Several values for one entry are separate records, joined by “and”; a condition that tells them apart may be missing. Equal values may be shown once. Toxic doses and inconclusive results are not listed.

Take `O=NN(CCCl)C(=O)NC1CCC(=O)NC1=O` (stereo unspecified): the T/C is 243 % of control (dose: 2.8 mg/kg/injection, schedule: Q04DX003 (ip), vehicle: saline with Tween-80); 179 % of control (dose: 5.1 mg/kg/injection, schedule: Q07DX002 (oral), vehicle: saline with Tween-80); 224 % of control (dose: 5.1 mg/kg/injection, schedule: Q07DX003 (oral), vehicle: saline with Tween-80); 215 % of control (dose: 5.1 mg/kg/injection, schedule: Q07DX004 (oral), vehicle: saline with Tween-80); 269 % of control (dose: 5.2 mg/kg/injection, schedule: Q04DX003 (oral), vehicle: saline with Tween-80); 269 % of control (dose: 5.6 mg/kg/injection, schedule: Q04DX003 (ip), vehicle: saline with Tween-80). Also, the T/C reads like this: (dose: 7.7 mg/kg/injection, schedule: Q01DX001 (oral), vehicle: saline with Tween-80) 165 % of control; (dose: 7.7 mg/kg/injection, schedule: Q07DX002 (oral), vehicle: saline with Tween-80) 204 % of control; (dose: 7.7 mg/kg/injection, schedule: Q07DX003 (oral), vehicle: saline with Tween-80) 250 % of control; (dose: 7.7 mg/kg/injection, schedule: Q07DX004 (oral), vehicle: saline with Tween-80) 265 % of control; (dose: 8.5 mg/kg/injection, schedule: Q04DX003 (oral), vehicle: saline with Tween-80) 280 % of control; (dose: 11.25 mg/kg/injection, schedule: Q04DX003 (ip), vehicle: saline with Tween-80) 269 % of control. The T/C reads like this: (dose: 11.5 mg/kg/injection, schedule: Q01DX001 (oral), vehicle: saline with Tween-80) 189 % of control; (dose: 11.5 mg/kg/injection, schedule: Q07DX002 (oral), vehicle: saline with Tween-80) 251 % of control; (dose: 11.5 mg/kg/injection, schedule: Q07DX003 (oral), vehicle: saline with Tween-80) 255 % of control; (dose: 11.5 mg/kg/injection, schedule: Q07DX004 (oral), vehicle: saline with Tween-80) 369 % of control; (dose: 13.6 mg/kg/injection, schedule: Q04DX003 (oral), vehicle: saline with Tween-80) 307 % of control; (dose: 17.4 mg/kg/injection, schedule: Q01DX001 (oral), vehicle: saline with Tween-80) 189 % of control. Moreover, the T/C is, setting by setting: (dose: 17.4 mg/kg/injection, schedule: Q07DX002 (oral), vehicle: saline with Tween-80) 230 % of control; (dose: 17.4 mg/kg/injection, schedule: Q07DX003 (oral), vehicle: saline with Tween-80) 369 % of control; (dose: 17.4 mg/kg/injection, schedule: Q07DX004 (oral), vehicle: saline with Tween-80) 261 % of control; (dose: 26.0 mg/kg/injection, schedule: Q01DX001 (oral), vehicle: saline with Tween-80) 210 % of control; (dose: 26.0 mg/kg/injection, schedule: Q07DX002 (oral), vehicle: saline with Tween-80) 405 % of control; (dose: 26.0 mg/kg/injection, schedule: Q07DX003 (oral), vehicle: saline with Tween-80) 184 % of control. Further, the T/C (dose: 39.0 mg/kg/injection, schedule: Q01DX001 (oral), vehicle: saline with Tween-80) was 278 % of control.

For `O=c1[nH]cc(F)c(=O)[nH]1`, the T/C runs as follows: (dose: 28.8 mg/kg/injection, schedule: Q04DX003 (sc), vehicle: other) 120 % of control; (dose: 36.0 mg/kg/injection, schedule: Q04DX003 (ip), vehicle: saline) 175 % of control; (dose: 40.0 mg/kg/injection, schedule: Q04DX003 (ip), vehicle: saline) 186 % of control; (dose: 60.0 mg/kg/injection, schedule: Q04DX003 (ip), vehicle: saline) 164 % of control; (dose: 70.0 mg/kg/injection, schedule: Q07DX003 (ip), vehicle: saline) 152 % of control; (dose: 80.0 mg/kg/injection, schedule: Q04DX003 (ip), vehicle: saline) 95 % of control. For the same compound, the T/C is 79 % of control (dose: 100.0 mg/kg/injection, schedule: Q04DX003 (ip), vehicle: saline); 165 % of control (dose: 100.0 mg/kg/injection, schedule: Q07DX003 (ip), vehicle: saline); 150 % of control (dose: 140.0 mg/kg/injection, schedule: Q07DX003 (ip), vehicle: saline); 74 % of control (dose: 160.0 mg/kg/injection, schedule: Q04DX003 (ip), vehicle: saline).

With `COC1C(O)C(C)OC(OC2C(Oc3cccc4c(O)c5c(=O)oc6ccc(C)c7c(=O)oc(c34)c5c67)OC(C)C(O)C2O)C1O` (stereo unspecified), the T/C is 105 % of control and 112 % of control (dose: 12.5 mg/kg/injection, schedule: Q04DX002 (ip), vehicle: Klucel (hydroxypropylcellulose) (HPC)); 106 % of control (dose: 12.5 mg/kg/injection, schedule: Q04DX003 (ip), vehicle: Klucel (hydroxypropylcellulose) (HPC)); 107 % of control and 118 % of control (dose: 25.0 mg/kg/injection, schedule: Q04DX002 (ip), vehicle: Klucel (hydroxypropylcellulose) (HPC)); 116 % of control (dose: 25.0 mg/kg/injection, schedule: Q04DX003 (ip), vehicle: Klucel (hydroxypropylcellulose) (HPC)); 106 % of control (dose: 50.0 mg/kg/injection, schedule: Q04DX002 (ip), vehicle: Klucel (hydroxypropylcellulose) (HPC)); 106 % of control (dose: 50.0 mg/kg/injection, schedule: Q04DX003 (ip), vehicle: Klucel (hydroxypropylcellulose) (HPC)). Besides, the T/C was 107 % of control and 100 % of control (dose: 100.0 mg/kg/injection, schedule: Q04DX002 (ip), vehicle: Klucel (hydroxypropylcellulose) (HPC)); 110 % of control (dose: 100.0 mg/kg/injection, schedule: Q04DX003 (ip), vehicle: Klucel (hydroxypropylcellulose) (HPC)).

Regarding `Nc1nc(=S)c2ncn(C3CC(O)C(CO)O3)c2[nH]1` (stereo unspecified), the T/C (dose: 4.0 mg/kg/injection, schedule: Q04DX002 (ip), vehicle: saline with Tween-80) is 121 % of control; the T/C (dose: 8.0 mg/kg/injection, schedule: Q04DX002 (ip), vehicle: saline with Tween-80) is 106 % of control; the T/C (dose: 10.0 mg/kg/injection, schedule: Q04DX003 (ip), vehicle: saline with Tween-80) was 177 % of control; the T/C (dose: 16.0 mg/kg/injection, schedule: Q04DX002 (ip), vehicle: saline with Tween-80) is 106 % of control and 119 % of control; the T/C (dose: 32.0 mg/kg/injection, schedule: Q04DX002 (ip), vehicle: saline with Tween-80) was 102 % of control; the T/C (dose: 40.0 mg/kg/injection, schedule: Q04DX003 (ip), vehicle: saline with Tween-80) is 157 % of control. In addition, the T/C is, setting by setting: (dose: 64.0 mg/kg/injection, schedule: Q04DX002 (ip), vehicle: saline with Tween-80) 124 % of control; (dose: 128.0 mg/kg/injection, schedule: Q04DX002 (ip), vehicle: saline with Tween-80) 116 % of control; (dose: 256.0 mg/kg/injection, schedule: Q04DX002 (ip), vehicle: saline with Tween-80) 109 % of control.

In the case of `CCNCCNc1ccc(NCCNCC)c2c1C(=O)c1ccccc1C2=O`, the T/C by setting is: (dose: 2.0 mg/kg/injection, schedule: Q01DX009 (ip), vehicle: acid diluted with saline) 179 % of control; (dose: 4.0 mg/kg/injection, schedule: Q01DX009 (ip), vehicle: acid diluted with saline) 189 % of control; (dose: 8.0 mg/kg/injection, schedule: Q01DX009 (ip), vehicle: acid diluted with saline) 163 % of control and 166 % of control; (dose: 16.0 mg/kg/injection, schedule: Q01DX009 (ip), vehicle: acid diluted with saline) 169 % of control and 177 % of control.

As to `CC1(C)CC23C4COC(=O)C2CCC1C3CC4=O` (stereo unspecified), the T/C reads like this: (dose: 36.0 mg/kg/injection, schedule: Q04DX003 (ip), vehicle: DMSO) 99 % of control; (dose: 62.5 mg/kg/injection, schedule: Q04DX002 (ip), vehicle: saline with Tween-80) 109 % of control; (dose: 72.0 mg/kg/injection, schedule: Q04DX003 (ip), vehicle: DMSO) 93 % of control; (dose: 125.0 mg/kg/injection, schedule: Q04DX002 (ip), vehicle: saline with Tween-80) 91 % of control; (dose: 144.0 mg/kg/injection, schedule: Q04DX003 (ip), vehicle: DMSO) 94 % of control.
